Data from the supplement of paper PMC10307832.

Legend:
Assay in all cases: relative viability (nuclei count vs DMSO), 5 days (fraction); higher = more cells survive
Trametinib + Linsitinib = compound: CC(=O)Nc1cccc(-n2c(=O)n(C3CC3)c(=O)c3c(Nc4ccc(I)cc4F)n(C)c(=O)c(C)c32)c1 [Trametinib] + C[C@]1(O)C[C@@H](c2nc(-c3ccc4ccc(-c5ccccc5)nc4c3)c3c(N)nccn32)C1 [Linsitinib] (partner 1 µM)
In short: (§1)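 Relative viability is defined as nuclei in treated wells over nuclei in vehicle wells. Duplicate plates were run and medians reported. Lung cancer cell lines in 1536-well plates were dosed by pin tool one day after seeding, with one drug or with a fixed anchor-drug dose plus five library-drug doses (not always all listed) in √10 steps, and nuclei were counted after 5 days.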

[1] = compound: CN1C=C(C2=CC=CC=C21)/C=C\3/C4=C(C=CC=N4)NC3=O + CC(=O)Nc1cccc(-n2c(=O)n(C3CC3)c(=O)c3c(Nc4ccc(I)cc4F)n(C)c(=O)c(C)c32)c1 [Trametinib] (partner 0.02 µM)
In short: as §1

[2] = compound: CN1C=C(C2=CC=CC=C21)/C=C\3/C4=C(C=CC=N4)NC3=O + CS(=O)(=O)N1CCN(Cc2cc3nc(-c4cccc5[nH]ncc45)nc(N4CCOCC4)c3s2)CC1 [Pictilisib] (partner 1 µM)
In short: as §1

[3] = compound: CN1C=C(C2=CC=CC=C21)/C=C\3/C4=C(C=CC=N4)NC3=O + Nc1ncn([C@H]2C[C@H](O)[C@@H](CO)O2)c(=O)n1 [Decitabine] (partner 2 µM)
In short: as §1

Row | Cell Line | relative viability (Trametinib + Linsitinib; first compound 0.0025 µM) | relative viability (Trametinib + Linsitinib; first compound 0.007906 µM) | relative viability (Trametinib + Linsitinib; first compound 0.025 µM) | relative viability (Trametinib + Linsitinib; first compound 0.07906 µM) | relative viability (Trametinib + Linsitinib; first compound 0.25 µM) | relative viability ([1]; first compound 0.02 µM) | relative viability ([1]; first compound 0.06325 µM) | relative viability ([1]; first compound 0.2 µM) | relative viability ([1]; first compound 0.6325 µM) | relative viability ([1]; first compound 2 µM) | relative viability ([2]; first compound 0.02 µM) | relative viability ([2]; first compound 0.06325 µM) | relative viability ([2]; first compound 0.2 µM) | relative viability ([2]; first compound 0.6325 µM) | relative viability ([2]; first compound 2 µM) | relative viability ([3]; first compound 0.02 µM) | relative viability ([3]; first compound 0.06325 µM) | relative viability ([3]; first compound 0.2 µM) | relative viability ([3]; first compound 0.6325 µM) | relative viability ([3]; first compound 2 µM)
1 | PC-14 | 0.996 | 0.89 | 0.787 | 0.59 | 0.434 | 0.713 | 0.69 | 0.692 | 0.747 | 0.78 | 0.573 | 0.662 | 0.881 | 0.635 | 0.691 | 0.218 | 0.209 | 0.178 | 0.23 | 0.226
2 | LCLC-103H | 0.968 | 0.897 | 0.746 | 0.904 | 0.933 | 0.645 | 0.691 | 0.718 | 0.667 | 0.681 | 0.721 | 0.672 | 0.553 | 0.53 | 0.584 | 0.724 | 0.732 | 0.684 | 0.696 | 0.732
3 | COR-L23 | 0.874 | 0.851 | 0.827 | 0.639 | 0.306 | 0.519 | 0.575 | 0.576 | 0.545 | 0.606 | 0.721 | 0.707 | 0.781 | 0.737 | 0.887 | 0.446 | 0.372 | 0.403 | 0.408 | 0.435
4 | H3255 | 1.02 | 0.822 | 0.795 | 0.855 | 0.575 | 0.726 | – | 0.57 | 0.775 | 0.668 | 0.41 | 0.453 | 0.395 | 0.501 | 0.475 | 0.796 | – | 0.57 | 0.563 | 0.491
5 | NCI-H2126 | 0.617 | 0.613 | 0.422 | 0.546 | 0.454 | 0.558 | 0.55 | 0.564 | 0.212 | 0.506 | 0.486 | 0.492 | 0.431 | 0.431 | 0.415 | 0.631 | 0.585 | 0.569 | 0.536 | 0.508
6 | HCC-366 | 0.538 | 0.288 | 0.196 | 0.133 | 0.116 | 0.279 | 0.316 | 0.307 | 0.291 | 0.318 | 0.114 | 0.121 | 0.118 | 0.113 | 0.104 | 0.304 | 0.335 | 0.349 | 0.369 | 0.342
7 | LU99A | 0.593 | 0.522 | 0.441 | 0.47 | 0.291 | 0.554 | 0.504 | 0.494 | 0.588 | 0.597 | 0.344 | 0.282 | 0.338 | 0.316 | 0.315 | 0.855 | 0.877 | 0.902 | 0.848 | 0.842
8 | HOP-62 | 1.06 | 0.921 | 0.705 | 0.487 | 0.152 | 0.424 | 0.415 | – | 0.354 | 0.325 | 0.729 | 1.05 | 0.475 | 0.627 | 0.937 | 0.184 | 0.206 | – | 0.188 | 0.241
9 | HCC-15 | 0.694 | 0.447 | 0.294 | 0.239 | 0.186 | 0.411 | 0.392 | 0.403 | 0.377 | 0.367 | 0.717 | 0.639 | 0.775 | 0.666 | 0.771 | 0.562 | 0.566 | 0.656 | 0.579 | 0.814
10 | HARA | 0.757 | 0.736 | 0.673 | 0.535 | 0.237 | 0.673 | 0.635 | – | 0.605 | 0.492 | 0.55 | 0.391 | 0.407 | 0.254 | 0.379 | 0.373 | 0.477 | – | 0.597 | 0.524
11 | SK-MES-1 | 1.02 | 0.938 | 0.779 | 0.505 | 0.338 | 0.509 | 0.603 | 0.538 | 0.596 | 0.54 | 0.338 | 0.308 | 0.346 | 0.342 | 0.302 | 0.37 | 0.336 | 0.369 | 0.38 | 0.369
12 | NCI-H1355 | 0.737 | 0.605 | 0.375 | 0.433 | 0.352 | 0.336 | 0.361 | 0.423 | 0.274 | 0.3 | 0.365 | 0.332 | 0.287 | 0.238 | 0.372 | 0.342 | 0.375 | 0.374 | 0.317 | 0.324
13 | NCI-H727 | 0.21 | 0.164 | 0.104 | 0.144 | 0.155 | 0.461 | 0.344 | 0.361 | 0.373 | 0.401 | 0.363 | 0.304 | 0.208 | 0.299 | 0.484 | 0.935 | 0.886 | 0.669 | 0.979 | 0.829
14 | NCI-H520 | 0.947 | 1.02 | 1.02 | 0.905 | 0.664 | 0.542 | 0.589 | 0.621 | 0.716 | 0.68 | 0.275 | 0.296 | 0.275 | 0.308 | 0.335 | 0.46 | 0.492 | 0.536 | 0.473 | 0.52
15 | NCI-H838 | 0.912 | 0.867 | – | 0.754 | 0.528 | 0.467 | 0.413 | 0.527 | 0.469 | 0.459 | 0.311 | 0.351 | 0.464 | 0.4 | 0.381 | 0.431 | 0.447 | 0.446 | 0.433 | 0.449
16 | HCC-44 | 0.734 | 0.592 | 0.334 | 0.43 | 0.321 | 1.08 | 1.12 | 0.968 | 1.04 | 0.884 | 0.47 | 0.558 | 0.475 | 0.564 | 0.485 | 0.877 | 0.938 | 0.95 | 0.962 | 0.838
17 | LK-2 | 0.553 | 0.44 | 0.604 | 0.304 | 0.469 | – | 0.683 | 0.743 | 0.701 | 0.794 | – | 0.364 | 0.458 | 0.453 | 0.557 | 0.225 | 0.24 | 0.192 | 0.275 | 0.375
18 | HCC-827 | 0.958 | 0.893 | 0.944 | 0.886 | 0.753 | 0.509 | 0.528 | – | 0.571 | 0.566 | 1.07 | 0.996 | – | 0.772 | 1 | 0.315 | 0.297 | – | 0.327 | 0.297
19 | SW 1573 | 0.847 | 0.602 | 0.654 | 0.487 | 0.449 | 0.531 | 0.576 | 0.571 | 0.687 | 0.712 | 0.474 | 0.489 | 0.51 | 0.532 | 0.521 | 0.477 | 0.498 | 0.514 | 0.542 | 0.458
20 | NCI-H2023 | 0.549 | 0.47 | 0.45 | 0.424 | 0.217 | 0.528 | 0.571 | – | 0.378 | 0.43 | 0.258 | 0.17 | 0.128 | 0.193 | 0.181 | 0.245 | 0.215 | 0.193 | 0.229 | 0.245
21 | EPLC-272H | 1.23 | 0.89 | 0.471 | 0.659 | 0.489 | 0.348 | 0.263 | – | 0.283 | 0.267 | 0.294 | 0.285 | – | 0.27 | 0.304 | 0.382 | 0.345 | – | 0.333 | 0.336
22 | SK-LU-1 | 1.18 | 0.965 | 0.888 | 0.778 | 0.443 | 0.414 | 0.475 | 0.475 | 0.416 | 0.533 | 0.425 | 0.544 | 0.63 | 0.472 | 0.543 | 0.484 | 0.499 | 0.578 | 0.617 | 0.6
23 | NCI-H358 | 0.587 | 0.438 | 0.399 | 0.332 | 0.28 | 0.12 | 0.127 | 0.116 | 0.136 | 0.117 | 0.33 | 0.319 | 0.301 | 0.338 | 0.387 | 0.233 | 0.186 | 0.195 | 0.204 | 0.246
24 | NCI-H1395 | 0.981 | 1.15 | 1.14 | 1.02 | 0.673 | 0.946 | 0.976 | 1.01 | 0.98 | 1.07 | 0.605 | 0.581 | – | 0.602 | 0.577 | 0.642 | 0.702 | 0.686 | 0.699 | 0.688
25 | NCI-H2085 | 0.812 | 0.688 | 0.607 | 0.728 | 0.737 | 0.504 | 0.514 | 0.513 | 0.445 | 0.408 | 0.307 | 0.427 | 0.39 | 0.458 | 0.534 | 0.523 | 0.494 | 0.559 | 0.491 | 0.525
26 | NCI-H2087 | 0.718 | 0.416 | 0.377 | 0.311 | 0.315 | 0.149 | 0.208 | 0.153 | 0.189 | 0.215 | 0.942 | 0.833 | 0.769 | 0.793 | 0.951 | 0.227 | 0.239 | 0.255 | 0.326 | 0.363
27 | NCI-H322M | 0.896 | 0.664 | 0.601 | 0.519 | 0.459 | 0.476 | 0.503 | 0.51 | 0.468 | 0.553 | 0.431 | 0.552 | 0.498 | 0.478 | 0.542 | 0.683 | 0.708 | 0.649 | 0.648 | 0.686
28 | NCI-H1734 | 0.845 | 0.739 | – | 0.788 | 0.613 | 0.603 | 0.619 | – | 0.676 | 0.699 | 0.432 | 0.454 | – | 0.466 | 0.45 | 0.482 | 0.535 | – | 0.515 | 0.499
